Results taken from US11046709B2, “Fused 1,4-diazepines as BET bromodomain inhibitors” (THE REGENTS OF THE UNIVERSITY OF MICHIGAN, priority 2017, dated 2021).
Where two headings read alike, the source gives them in different places.

Experiments:
recombinant BRD4 BD2 = target: T1, recombinant BRD4 BD2 (Homo sapiens, UniProt O60885); assay: Competitive fluorescence-polarization (FP) binding assay, BRD4 BD2
T1 construct: for recombinant BRD4 BD1 and BRD4 BD2 proteins
Procedure: Fluorescence Polarization (FP) competitive binding studies were carried out using a FAM labeled fluorescent probe, see, e.g., Cpd. No. 350 of US 2014/0256706, to determine binding affinities of representative Compounds of the Disclosure for recombinant BRD4 BD1 and BRD4 BD2 proteins. Equilibrium dissociation constants (Kd) values of the fluorescent probe to BRD4 BD1 and BD2 proteins were determined from protein saturation experiments by monitoring the total fluorescence polarization of mixtures composed with the fluorescent probe at a fixed concentration and proteins with increasing concentrations up to full saturation. Serial dilutions of testing proteins were mixed with the fluorescent probe to a final volume of 200 μl in the assay buffer (100 mM phosphate buffer, pH=6.5, 0.01% Triton X-100 (Sigma, 282103) being added right before assays). Final fluorescent probe concentration was 1.5 nM for both proteins. Plates were incubated at room temperature for 30 minutes with gentle shaking to assure equilibrium. FP values in millipolarization units (mP) were measured using the Infinite M-1000 plate reader (Tecan U.S., Research Triangle Park, N.C.) in Microfluor 1 96-well, black, round-bottom plates (Thermo Scientific, Waltham, Mass.) at an excitation wavelength of 485 nm and an emission wavelength of 530 nm. Kd values of the fluorescent probe, which were calculated by fitting the sigmoidal dose-dependent FP increases as a function of protein concentrations using Graphpad Prism 6.0 software (Graphpad Software, San Diego, Calif.), are 5.5 and 3.0 nM to BDR4 BD1 and 2, respectively.
The IC50 and Ki values of compounds were determined in a competitive binding experiment. See US 2014/0256706. Mixtures of 10 μl of the tested compounds in assay buffer with 40% Ethylene Glycol and 190 μl of preincubated protein/probe complex solution in the assay buffer (100 mM potassium phosphate, pH 6.5, 0.01% Triton X-100) were added into assay plates which were incubated at room temperature for 30 minutes with gentle shaking. Final concentrations of proteins were 10 and 6 nM in assays for BRD4 BD1 and BD2, respectively. Final probe concentration is 1.5 nM in both assays. Negative controls containing protein/probe complex only (equivalent to 0% inhibition), and positive controls containing only free probes (equivalent to 100% inhibition), were included in each assay plate. FP values were measured as described above. IC50 values were determined by nonlinear regression fitting of the competition curves. Instead of being calculated from IC50 values as described before. Ki values of competitive inhibitors were obtained directly by nonlinear regression fitting as well, based upon the Kd values of the probe to different proteins, and concentrations of the proteins and probes in the competitive assays (US 2014/0256706; Wang, FEBS Lett. 360:111 (1995); Zhang et al., Analytical Biochemistry, 331:138 (2004)).
Representative compounds in Table 5 were evaluated for their binding affinities to BRD4 BD1 and BD2 proteins using the Competitive Fluorescence-Polarization (FP) Assays described in Example 6, with the data included in Table 6.

MOLM-13 = assay: Cell growth inhibition, 4-day proliferation assay, MOLM-13; format: cell-based; settings: Homo sapiens, MOLM-13, 96 h, read-out: Cell IC50 (nM) MOLM13
Procedure: (§1) The effect of representative Compounds of the Disclosure on cell viability was determined in a 4-day proliferation assay. Cells were maintained in the appropriate culture medium with 100/0 FBS at 37° C. and an atmosphere of 5% CO2. All the cell lines were used within three months of thawing fresh vials.
(§2) In general, cells were seeded in 96-well flat bottom (Corning COSTAR, Corning, N.Y., cat #3595) or white opaque cell culture plates (BD Falcon, cat #353296) at a density of 3,000-10,000 cells/well in 75 μl of culture medium. Compounds were serially diluted in the appropriate medium, and 75 μl of the diluted compounds were added to the appropriate wells of the cell plate. After the addition of compounds, the cells were incubated at 37° C. in an atmosphere of 5% CO2 for 4 days. Cell viability was determined using the CellTiter-Glo® Luminescent Cell Viability Assay Kit (Promega, Madison, Wis.) for leukemia cells and WST (2-(2-methoxy-4-nitrophenyl)-3-(4-nitrophenyl)-5-(2,4-disulfophenyl)-2H-tetrazolium, monosodium salt) Cell Counting-8 Kit (Dojindo Molecular Technologies, Inc., Rockville, Md.) for adherent cells according to the manufacturers' instructions.
(§3) For WST assay (adherent cells), WST-8 reagent was added to each well at a final concentration of 10% (v/v), and then the plates were incubated at 37° C. for 1-2 hours for color development. The absorbance was measured at 450 nm using a SPECTRAmax PLUS plate reader (Molecular Devices, Sunnyvale, Calif.). The readings were normalized to the DMSO-treated cells and the half maximal inhibitory concentration (IC50) was calculated by nonlinear regression (four parameters sigmoid fitted with variable slope, least squares fit, and no constraint) analysis using the GraphPad Prism 5 software (GraphPad Software, La Jolla, Calif.).
(§4) For CellTiter-Glo assay (suspension cells), 100 μl of CellTiter-Glo® Reagent was added to each well, and then the plates were incubated at room temperature for 10-20 minutes. The luminescent signal was measured using a Tecan Infinite M1000 multimode microplate reader (Tecan, Morrisville, N.C.). The readings were normalized to the DMSO-treated cells and the IC50 was calculated by nonlinear regression (four parameters sigmoid fitted with variable slope, least squares fit, and no constraint) analysis using the GraphPad Prism 5 software. See US 2014/0256706.
(§5) For a number of representative compounds in Table 5, their IC50 values in cell growth inhibition activity in the RS4;11 and MOLM-13 human leukemia cell lines and the MDA-MB-231 breast cancer cell line were evaluated using the WST-8 assay described in EXAMPLE 7, with the data shown in Table 7.

MDA-MB-231 = assay: Cell growth inhibition, 4-day proliferation assay, MDA-MB-231; format: cell-based; settings: Homo sapiens, MDA-MB-231, 96 h, read-out: Cell IC50 (nM) MDA-MB-231
Procedure: as §1, §2, §3, §4, §5

[1] = 4-day proliferation assay, Table 4

Row | Structure (SMILES) | IC50 (recombinant BRD4 BD2) | IC50 (MOLM-13) | IC50 (MDA-MB-231) | IC50 (recombinant BRD4 BD2; competitive FP, Table 3, read-out: Binding Affinity BRD4-BD2 IC50) | IC50 (MOLM-13; [1]) | IC50 (MDA-MB-231; [1])
1 | Cc1c(C#Cc2ccccn2)sc2c1C(c1ccc(Cl)cc1)=N[C@@H](C)c1nnc(C)n1-2 [Cpd. No. 2, (S)-4-(4-chlorophenyl)-3,6,9-trimethyl-2-(pyridin-2-ylethynyl)-6H-thieno[3,2-f][1,2,4]triazolo[4,3-a][1,4]diazepine] | 14.5 nM | 15.7 ± 0.43 nM | 31 nM |  |  | 
2 | Cc1c(C#Cc2cccnc2)sc2c1C(c1ccc(Cl)cc1)=NCc1nnc(C)n1-2 [Cpd. No. 3, 4-(4-chlorophenyl)-3,9-dimethyl-2-(pyridin-3-ylethynyl)-6H-thieno[3,2-f][1,2,4]triazolo[4,3-a][1,4]diazepine] | 124 nM | 145 ± 13.7 nM | 151 ± 19 nM |  |  | 
3 | Cc1c(C#Cc2cccnc2)sc2c1C(c1ccc(Cl)cc1)=N[C@@H](C)c1nnc(C)n1-2 [Cpd. No. 4, (S)-4-(4-chlorophenyl)-3,6,9-trimethyl-2-(pyridin-3-ylethynyl)-6H-thieno[3,2-f][1,2,4]triazolo[4,3-a][1,4]diazepine] | 12.5 nM | 10.5 ± 0.24 nM | 2.63 ± 0.6 nM |  |  | 
4 | Cc1c(C#Cc2cncnc2)sc2c1C(c1ccc(Cl)cc1)=NCc1nnc(C)n1-2 [Cpd. No. 5, 4-(4-chlorophenyl)-3,9-dimethyl-2-(pyrimidin-5-ylethynyl)-6H-thieno[3,2-f][1,2,4]triazolo[4,3-a][1,4]diazepine] | 305 nM | 176 ± 25.5 nM | 214 ± 35.2 nM |  |  | 
5 | Cc1c(C#Cc2cncnc2)sc2c1C(c1ccc(Cl)cc1)=N[C@@H](C)c1nnc(C)n1-2 [Cpd. No. 6, (S)-4-(4-chlorophenyl)-3,6,9-trimethyl-2-(pyrimidin-5-ylethynyl)-6H-thieno[3,2-f][1,2,4]triazolo[4,3-a][1,4]diazepine] | 16 nM | 15.6 ± 1.7 nM | 17.8 ± 19 nM |  |  | 
6 | Cc1c(C#Cc2ccncc2)sc2c1C(c1ccc(Cl)cc1)=NCc1nnc(C)n1-2 [Cpd. No. 7, 4-(4-chlorophenyl)-3,9-dimethyl-2-(pyridin-4-ylethynyl)-6H-thieno[3,2-f][1,2,4]triazolo[4,3-a][1,4]diazepine] | 1670 nM | 144 ± 16.3 nM | 660 ± 83.6 nM |  |  | 
7 | Cc1c(C#Cc2ccncc2)sc2c1C(c1ccc(Cl)cc1)=N[C@@H](C)c1nnc(C)n1-2 [Cpd. No. 8, (S)-4-(4-chlorophenyl)-3,6,9-trimethyl-2-(pyridin-4-ylethynyl)-6H-thieno[3,2-f][1,2,4]triazolo[4,3-a][1,4]diazepine] | 10.4 nM | 13.5 ± 0.8 nM | 64.5 ± 22.7 nM |  |  | 
8 | Cc1c(C#CCO)sc2c1C(c1ccc(Cl)cc1)=NCc1nnc(C)n1-2 [Cpd. No. 9, 3-(4-(4-chlorophenyl)-3,9-dimethyl-6H-thieno[3,2-f][1,2,4]triazolo[4,3-a][1,4]diazepin-2-yl)prop-2-yn-1-ol] | 126 nM | 215 nM | 412 nM |  |  | 
9 | Cc1c(C#CCO)sc2c1C(c1ccc(Cl)cc1)=N[C@@H](C)c1nnc(C)n1-2 [Cpd. No. 10, (S)-3-(4-(4-chlorophenyl)-3,6,9-trimethyl-6H-thieno[3,2-f][1,2,4]triazolo[4,3-a][1,4]diazepin-2-yl)prop-2-yn-1-ol] | 11.8 nM | 30.5 nM | 31.8 nM |  |  | 
10 | Cc1c(C#CCCCO)sc2c1C(c1ccc(Cl)cc1)=N[C@@H](C)c1nnc(C)n1-2 [Cpd. No. 11, (S)-5-(4-(4-chlorophenyl)-3,6,9-trimethyl-6H-thieno[3,2-f][1,2,4]triazolo[4,3-a][1,4]diazepin-2-yl)pent-4-yn-1-ol] | 7.22 nM | 6.87 nM | < 1.7 nM |  |  | 
11 | Cc1c(C#Cc2cnn(CCCO)c2)sc2c1C(c1ccc(Cl)cc1)=N[C@@H](C)c1nnc(C)n1-2 [Cpd. No. 12, (S)-3-(4-((4-(4-chlorophenyl)-3,6,9-trimethyl-6H-thieno[3,2-f][1,2,4]triazolo[4,3-a][1,4]diazepin-2-yl)ethynyl)-1H-pyrazol-1-yl)propan-1-ol] | 10.8 nM | 3.74 nM | 31.5 nM |  |  | 
12 | Cc1c(C#Cc2ccc(CCCCO)cn2)sc2c1C(c1ccc(Cl)cc1)=N[C@@H](C)c1nnc(C)n1-2 [Cpd. No. 13] |  |  |  | 11.1 nM | 23 nM | 84.4 nM
13 | Cc1c(C#Cc2cnn(CC(=O)O)c2)sc2c1C(c1ccc(Cl)cc1)=N[C@@H](C)c1nnc(C)n1-2 [Cpd. No. 14, (S)-2-(4-((4-(4-chlorophenyl)-3,6,9-trimethyl-6H-thieno[3,2-f][1,2,4]triazolo[4,3-a][1,4]diazepin-2-yl)ethynyl)-1H-pyrazol-1-yl)acetic acid] | 12.3 nM | 964 nM | 965 nM |  |  | 
14 | COCC#Cc1sc2c(c1C)C(c1ccc(Cl)cc1)=N[C@@H](C)c1nnc(C)n1-2 [Cpd. No. 15, (S)-4-(4-chlorophenyl)-2-(3-methoxyprop-1-yn-1-yl)-3,6,9-trimethyl-6H-thieno[3,2-f][1,2,4]triazolo[4,3-a][1,4]diazepine] | 11.3 nM | 25.6 nM | 51.1 nM |  |  | 
15 | Cc1c(C#CCN(C)C)sc2c1C(c1ccc(Cl)cc1)=N[C@@H](C)c1nnc(C)n1-2 [Cpd. No. 16, (S)-3-(4-(4-chlorophenyl)-3,6,9-trimethyl-6H-thieno[3,2-f][1,2,4]triazolo[4,3-a][1,4]diazepin-2-yl)-N,N-dimethylprop-2-yn-1-amine] | 58.9 nM | 27.9 nM | 40.9 nM |  |  | 
16 | Cc1c(C#Cc2ccnn2C)sc2c1C(c1ccc(Cl)cc1)=N[C@@H](C)c1nnc(C)n1-2 [Cpd. No. 17, (S)-4-(4-chlorophenyl)-3,6,9-trimethyl-2-((1-methyl-1H-pyrazol-5-yl)ethynyl)-6H-thieno[3,2-f][1,2,4]triazolo[4,3-a][1,4]diazepine] | 14.4 nM | 23.7 nM | 14.6 nM |  |  | 
17 | Cc1c(C#Cc2ccc(N)nc2)sc2c1C(c1ccc(Cl)cc1)=N[C@@H](C)c1nnc(C)n1-2 [Cpd. No. 18, (S)-5-((4-(4-chlorophenyl)-3,6,9-trimethyl-6H-thieno[3,2-f][1,2,4]triazolo[4,3-a][1,4]diazepin-2-yl)ethynyl)pyridin-2-amine] | 8.84 nM | 9.63 nM | 2.44 nM |  |  | 
